Measurements taken from patent US10246486B2, “Macrocyclic inhibitors of flaviviridae viruses” (Gilead Sciences, Inc., priority 2012, dated 2019).

Tests used:
cyclophilin A = cyclophilin A (Homo sapiens, UniProt P62937); experiment: biochemical
[1] = tested on: HCV replicon 1a (human hepatoma Huh-7 cell line harboring a HCV replicon); experiment: microbe, parasite or virus in culture; assay type: cell-based; details: Hepatitis C virus, Huh-7, 72 h, read-out: Replicon 1a % inhibition at 1 μm

Sequence of cyclophilin A (P62937 whole entry, species assumed): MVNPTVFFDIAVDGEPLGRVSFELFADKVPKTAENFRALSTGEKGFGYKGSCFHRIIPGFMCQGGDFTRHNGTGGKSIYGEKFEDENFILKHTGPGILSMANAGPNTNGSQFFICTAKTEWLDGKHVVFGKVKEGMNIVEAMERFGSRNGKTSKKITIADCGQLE

Row | IC50 (cyclophilin A) [µM] | Structure (SMILES) | inhibition at 1 µM [1] [%]
1 | 1 to 10 | CC(C)[C@@H]1NC(=O)/C=C\c2cc3cc(ccc3cn2)[C@@H](C)NC(=O)[C@@H]2CCCN(N2)C(=O)[C@H](C)NC1=O [Example 12] | 
2 | < 0.1 | CC(C)[C@@H]1NC(=O)[C@@H]([C@H](C)O)/C=C/c2ccc3ccc(nc3c2)[C@@H](C)OC(=O)[C@@H]2CCCN(N2)C(=O)[C@H](C)NC1=O [Example 31] | 
3 |  | CO[C@@H]1/C=C/c2cc3cc(ccc3cn2)[C@@H](C)OC(=O)[C@@]2(C)CCCN(N2)C(=O)[C@H](C)NC(=O)[C@H](C(C)C)NC(=O)[C@@H]1C [Example 33] | 14
